Results taken from patent US20240334934A1, “FUNGICIDE MIXTURE” (priority 2021, published 2024).

Tests used:
[1] = system: Fusarium virguliforme isolate 2; test: Efficacy of purified CtmC, 96-well growth assay, IC50 from OD620; format: cell-based
Procedure: (§1) A Fusarium virguliforme spore suspension of 25′000 spores/ml was produced in PDB (potato dextrose broth) medium supplemented with 0.3% agar. Isolates of the species originate from Syngenta internal collection (CH).
(§2) CtmC was dissolved in DMSO (Dimethylsulfoxid) to a final concentration of 1000 ppm to create a stock solution. Different dilutions of CtmC were created in DMSO: 1000 ppm, 330 ppm, 110 ppm, 37 ppm, 12 ppm and 4.1 ppm. 10 μl of DMSO or CtmC solution were transferred to a 96-well-dilution plate and diluted 10-fold with 90 μl 0.025% Tween 20/1H2O solution. Out of the dilution plate, 10 μl were transferred to a 96 well assay plate and 90 μl spore suspension were added to each well.
(§3) 96 Well plates were then incubated for 72 h at 24° C., 90% relative humidity in the dark. Plates were evaluated by reading the OD at 620 nm.
(§4) Assays were run on two independent isolates for the species. Each isolate was tested twice (assay 1 and assay 2) and each isolate x fungicide rate combination was duplicated on the test plates.
(§5) The OD620 was averaged over the two wells and used to calculate IC50 values (fungicide concentration resulting in 50% inhibition of growth) with the program GraphPad prism, resulting in 4 independent IC50 values. No significant differences were found between both isolates tested: […]

[2] = system: Fusarium virguliforme isolate 1; test: as above; format: cell-based
Procedure: as §1, §2, §3, §4, §5

Zymoseptoria tritici = test: Greenhouse test, wheat, preventative; format: in vivo; settings: 1 day preventative, EC50 formulation
Procedure: Purified Cyclothiazomycin C (CtmC) was formulated as an EC50 formulation. The formulation was diluted in water at rates of 100 ppm and 50 ppm of CtmC. Plants were treated with 400 L/ha of the diluted product supplemented with an adjuvant to improve sticking and spreading, resulting in a treatment of 40 g/ha and 20 g/ha of CtmC, respectively.
Zymoseptoria tritici wheat/preventative (Septoria tritici leaf spot on wheat). 2-week old wheat plants cv. Riband are sprayed in a spray chamber with the formulated test compound diluted in water. The test plants are inoculated by spraying a spore suspension on them one day after application. After an incubation period of 1 day at 22° C./21° C. (day/night) and 95% rh, the inoculated test plants are kept at 22° C./21° C. (day/night) and 70% rh in a greenhouse. Efficacy is assessed directly when an appropriate level of disease appears on untreated check plants (16-19 days after application).

Monographella nivalis = test: Efficacy of purified CtmC in-vitro, microtiter plate growth inhibition; format: cell-based; settings: rate 10 ppm; 72 hrs at 24° C.
Procedure: CtmC was dissolved in DMSO (Dimethylsulfoxid) to a final concentration of 1000 ppm to create a stock solution. A second dilutions of 1:10 was made in water+0.025% Tween 20. From this second dilution 10 μl are dispensed into a 96-well plate. To each well, 90 μl of medium with fungal spores are added and mixed, resulting in final CtmC concentrations of 10 ppm. All wells containing CtmC also contain DMSO (1%) and Tween 20 (0.0025%).
Monographella nivalis (snow mould, foot rot of cereals): Conidia of the fungus from cryogenic storage were directly mixed into nutrient broth (PDB potato dextrose broth). After placing a solution of the test compounds into a microtiter plate (96-well format) the nutrient broth containing the fungal spores was added.

[3] = system: Fusarium tricinctum K7454; test: Efficacy of purified CtmC alone in-vitro, 96 well plate, OD 620 nm; format: cell-based; settings: CtmC 10 ppm
Procedure: (§6) CtmC was dissolved in DMSO (Dimethylsulfoxid) to a final concentration of 1000 ppm to create a stock solution. A second dilutions of 1:10 was made in water+0.025% Tween 20. From this second dilution 10 μl are dispensed into a 96 well plate. To each well, 90 μl of medium (PDB—potato dextrose broth, plus 0.3% agar) with fungal spores are added and mixed, resulting in final CtmC concentrations of 10 ppm. All wells containing CtmC also contain DMSO (1%) and Tween 20 (0.0025%). In the following table 4 some of the species were tested using several distinct isolates (internal strain number indicated) to understand variability among different isolates of the same species sampled in different locations, producing different mycotoxins (genus Fusarium), or expressing various tolerances to fungicides of the SDHI (Succinate Dehydrogenase Inhibitor), SBI (Sterol Biosynthesis Inhibitors) and/or QoI (quinone outside inhibitors) classes (example: Zymoseptoria tritici). Different isolates had variable inoculum density and number of biological repicas, as indicated.

[4] = system: Fusarium tricinctum K7452; test: as above; format: cell-based; settings: CtmC 10 ppm
Procedure: as §6

[5] = system: Monographella nivalis K7484; test: as above; format: cell-based; settings: CtmC 10 ppm
Procedure: as §6

Fusarium avenaceum K6940 = test: as above; format: cell-based; settings: CtmC 10 ppm
Procedure: as §6

[6] = system: Gibberella fujikuroi K5299; test: as above; format: cell-based; settings: CtmC 10 ppm
Procedure: as §6

[7] = system: Gibberella avenacea K6939; test: as above; format: cell-based; settings: CtmC 10 ppm
Procedure: as §6

[8] = system: Colletotrichum lindemuthianum K5893; test: as above; format: cell-based; settings: CtmC 10 ppm
Procedure: as §6

[9] = system: Cochliobolus sativus K5817; test: as above; format: cell-based; settings: CtmC 10 ppm
Procedure: as §6

[10] = system: Fusarium langsethiae K5670; format: cell-based; settings: CtmC 10 ppm
Gibberella zeae K6102 = format: cell-based; settings: CtmC 10 ppm
genus Bacillus = settings: statement of WO2015191789, Table 6; cited from earlier work
[11] = system: Fusarium sporotrichioides K7901; format: cell-based; settings: CtmC 10 ppm
[12] = system: Zymoseptoria tritici K6420; test: Efficacy of mixtures of streptimidone and CtmC, liquid culture in PDB, optical density 620 nm; format: cell-based; settings: K6420, read-out: % Efficacy
[13] = 72 h at 24° C., 25'000 spores/ml

Question: Which “IC50 (ppm) Assay-1” value [1, 13] does the source give for `C=C1NC(=O)CNC(=O)[C@H](CCCCN)NC(=O)[C@@]2(C)NC(=O)/C(=C/C)NC(=O)[C@H]3CSC(=N3)[C@@H](CC(N)=O)CC(=O)c3ccc(nc3[C@@H](C)NC(=O)[C@@H]3CCCN3C1=O)-c1nc(cs1)C1=N[C@H](CS1)C(=O)NC(=C)c1nc(cs1)-c1nc(cs1)C1=N[C@@H](CS1)C(=O)N[C@@H](C(=O)O)CS2` [CtmC, cyclothiazomycin C] here?
Answer: 0.7 ppm

Question: And the “IC50 (ppm) Assay-2” value [1, 13]?
Answer: 1.5 ppm

Question: What about the “IC50 (ppm) average” value ([1]; average of Assay-1 and Assay-2) of the same compound?
Answer: 1.1 ppm

Question: And the IC50 ([1]; both tested isolates)?
Answer: ca. 1 ppm

Question: And the “IC50 (ppm) Assay-1” value [2, 13]?
Answer: 0.8 ppm

Question: And the “IC50 (ppm) Assay-2” value [2, 13]?
Answer: 1.6 ppm

Question: What about the “IC50 (ppm) average” value ([2]; average of Assay-1 and Assay-2) of the same compound?
Answer: 1.2 ppm

Question: What about the IC50 ([2]; both tested isolates) of the same compound?
Answer: ca. 1 ppm

Question: What about the “efficacy 20 g/ha (%)” value (Zymoseptoria tritici; 20 g/ha) of the same compound?
Answer: 44%

Question: What about the “efficacy 40 g/ha (%)” value (Zymoseptoria tritici; 40 g/ha) of the same compound?
Answer: 16%

Question: And the “control of fungal growth (%)” value (Monographella nivalis)?
Answer: 100%

Question: What about the “efficacy (%)” value [3] of the same compound?
Answer: 65%

Question: And the “optical density at 620 nm” value ([3]; blank 0.050, untreated 0.463)?
Answer: 0.195

Question: What about the “efficacy (%)” value [4] of the same compound?
Answer: 68%

Question: What about the “optical density at 620 nm” value ([4]; blank 0.052, untreated 0.498) of the same compound?
Answer: 0.197

Question: And the “efficacy (%)” value [5]?
Answer: 90%

Question: What about the “optical density at 620 nm” value ([5]; blank 0.054, untreated 0.233) of the same compound?
Answer: 0.073

Question: And the “efficacy (%)” value (Fusarium avenaceum K6940)?
Answer: 52%

Question: And the “optical density at 620 nm” value (Fusarium avenaceum K6940; blank 0.054, untreated 0.410)?
Answer: 0.225

Question: What about the “efficacy (%)” value [6] of the same compound?
Answer: 47%

Question: What about the “optical density at 620 nm” value ([6]; blank 0.053, untreated 0.941) of the same compound?
Answer: 0.528

Question: What about the “efficacy (%)” value [7] of the same compound?
Answer: 82%

Question: What about the “optical density at 620 nm” value ([7]; blank 0.055, untreated 0.675) of the same compound?
Answer: 0.165

Question: And the “efficacy (%)” value [8]?
Answer: 45%

Question: And the “optical density at 620 nm” value ([8]; blank 0.046, untreated 0.373)?
Answer: 0.225

Question: And the “efficacy (%)” value [9]?
Answer: 92%

Question: And the “optical density at 620 nm” value ([9]; blank 0.044, untreated 0.701)?
Answer: 0.095

Question: What about the “efficacy (%)” value [10] of the same compound?
Answer: 94%

Question: What about the “optical density at 620 nm” value ([10]; blank 0.053, untreated 0.346) of the same compound?
Answer: 0.072

Question: What about the “efficacy (%)” value (Gibberella zeae K6102) of the same compound?
Answer: 52%

Question: What about the “optical density at 620 nm” value (Gibberella zeae K6102; blank 0.044, untreated 0.733) of the same compound?
Answer: 0.377

Question: And the inhibitory activity (genus Bacillus)?
Answer: greatest inhibitory activity

Question: And the “efficacy (%)” value [11]?
Answer: 71%

Question: And the “optical density at 620 nm” value ([11]; blank 0.052, untreated 0.666)?
Answer: 0.231

Question: And the Emax at 0.0556 ppm [12]?
Answer: 0%

Question: And the Emax at 0.1667 ppm [12]?
Answer: 23%

Question: What about the Emax at 0.5 ppm [12] of the same compound?
Answer: 47%
